According to patent US20080008716A1, “Combined Pharmaceutical Composition Comprising an Anti-4-1BB Monoclonal Antibody and Chemotherapeutic Anti-Cancer Agent for Preventing and Treating Cancer Disease” (ULSAN INDUSTRIAL EDUCATION FOUNDATION, priority 2006, published 2008):

Legend:
B16F10 melanoma cell [1] = assay: Anticancer effect of anti-4-1BB antibody combined with other chemotherapeutic anti-cancer agents; tumor size and survival; settings: for growth rate of cancer tissue / survival rate of mice / anticancer effect / activity: given simultaneously with B16F10, FIG. 3; for growth rate of cancer tissue: chemotherapeutic once (Cis 50 or 200 μg, 5-FU 800 or 10,000 μg, irinotecan 2 mg, paclitaxel 200 or 500 μg i.p.; Doxo 200 or 400 μg i.v.), antibody 100 μg, vs rat IgG control; for survival rate of mice / anticancer effect / activity: same doses as E16
Protocol: 4×10^5 cells of B16F10 melanoma cell were injected to the back of C57BL/6 mice to occur tumor in a similar method in
At the same time, 100 μg of anti-4-1BB monoclonal antibody and/or 50 or 200 μg of cisplatin, 800 or 10,000 μg of 5-fluorouracil (5-FU), 2 mg of irinotecan and 200 or 500 μg of paclitaxel (Taxel) were intraperitoneally injected into the mice once respectively and the anti-4-1BB monoclonal antibody was further injected into the peritoneal cavity at 6 times per every 5 days. 100 μg of anti-4-1BB monoclonal antibody and/or 200 or 400 μg of Doxorubicin (Doxo) were injected into the vein and an anti-4-1BB monoclonal antibody was injected into the peritoneal cavity at 6 times per every 5 days. The size of tumor and the survival rates of the mice were analyzed during the test period (See FIG. 3).

B16F10 melanoma cell [2] = tested on: B16F10 melanoma cell
Protocol: (§1) C57BL/6 male mice (Harlan Laboratories, Indianapolis, Ind.) were used as an experiment animal. The mice had been bred allowing freely accessible to water and feed and maintaining the temperature to 21±2° C. in 12 hours of light/dark cycle before use in test. B16F10(ATCC CRL-6475, USA), a melanoma cell line of mouse, was cultured in DMEM medium (Dulbeco's modified eagle's medium, GIBCO BRL, USA) containing 10% FBS (Fetal Bovine Serum; Gibco BRL, NY), 2 mM L-glutamine, 100 U/l penicillin (Invitrogen, USA) and 100 μg/ml streptomycin (Invitrogen, USA).
(§2) 4×10^5 cells of B16F10 melanoma cell were subcutaneously injected to the back of mice to occur tumor. At the same time, 100 μg of anti-4-1BB monoclonal antibody and 3 mg of CTX were intraperitoneally injected into the mice and the antibody was further injected thereto at the interval of five days. […] The size and survival rate of the mice were periodically determined.
3 mg of CTX were injected into the peritoneal cavity of the mice at 5th days and 10th days after injecting cancer cells, anti 4-1BB antibody was injected into the peritoneal cavity at 6 times per every 5 days from 5th days or 10th days after injecting cancer cells.

IFN-γ = IFN-γ expression of CD4 and CD8 T cells of draining lymph node (intracellular staining, FACScan); settings: 17th day after treating, FIG. 5a
Protocol: At 1st, 2nd, 4th, 8th, 12th, 16th, 20th, 24th days after the injection, the closest draining lymph node (inguinal lymph node) to tumor tissue in each group was isolated from the mice to determine the expression of IFN-γ (Kim Y H et al., Cell. Immunol., 238(2), pp 76˜86, 2005). To stain the IFN-γ cytokine in cell, lymph-node cell suspension was prepared from each group and the separated cells were cultured in culture medium containing Brefeldin A (BD Bioscience, USA) for 6 hours after treating with 50 ng/ml of PMA and 500 mg/ml of Ionomycin (Sigma, USA). […] The cells was then stained with anti-IFN-γ-PE (eBioscience, USA) using by Cytofix/cytoperm (BD Pharmingen, USA) with the manual of manufacturing company and analyzed with FACScan (BD Bioscience, USA).
3 mg of CTX and/or 100 μg of anti-4-1BB antibody were treated to the tumor-injected mice once and the cell was separated from the experimental group at 17th day when the cell started to launch the repopulation after treating with CTX and at 22nd day when the repopulation of the cell in lymph node was enough and the expression of IFN-γ was analyzed with FACScan (BD Bioscience, USA) with the method disclosed in Example 3.

B16F10 melanoma cell [3] = tested on: B16F10 melanoma cell; remark: listed apart in the source
Protocol: as §1, §2
At the same time, 100 μg of anti-4-1BB monoclonal antibody and 3 mg of CTX were intraperitoneally injected to the mice once and anti-4-1BB monoclonal antibody was injected into the peritoneal cavity at 6 times per every 5 days. The tumor size and the survival rates of mice were analyzed during the test period (See FIG. 1)

[4] = tested on: draining lymph node cell (CD4 and CD8 T cells); assay: Lymphocyte repopulation: cell number, CD4 and CD8 T cells in draining lymph node of tumor-bearing mice; assay type: in vivo, C57BL/6 mice
Protocol: The ratio of immune cell in each sample was analyzed with FACScan (BD Bioscience, USA), and the number of infiltrated CD4+ CD8+ T cells in tumor tissue was calculated by following Math FIG. 1
Accordingly, it was anticipated that the sustainable treatment effect of cancer by the combined treatment with CTX and anti-4-1BB antibody would be involved in the repopulation of T cell showing anticancer activity.

## O=c1[nH]cc(F)c(=O)[nH]1 [5-FU, 5-fluorouracil]
B16F10 melanoma cell [1]
  growth rate of cancer tissue: decreased in a dose dependent manner
  survival rate of mice: increased

## O=P1(N(CCCl)CCCl)NCCCO1 (stereo not drawn) [CTX, cyclophosphamide]
B16F10 melanoma cell [2]; treatment at 5th day after injecting cancer cell
  anti-cancer activity: did not show any effect on the anti-cancer activity
B16F10 melanoma cell [2]; treatment from 10th day after injecting cancer cells, FIG. 2c
  growth of tumor: did not show any change
B16F10 melanoma cell [2]; treatment from 10th day after injecting cancer cells, FIG. 2d
  survival of mice: did not show any change
IFN-γ
  IFN-γ expression of T cell: 2 to 3%
B16F10 melanoma cell [3]; treatment at the same time as 4×10^5 B16F10 cells, 100 μg antibody i.p. 6 times per every 5 days, 3 mg CTX i.p. once, FIG. 1
  growing rate of tumor / growth of cancer: potent inhibiting effect on the growth of cancer
B16F10 melanoma cell [3]; treatment at the same time as B16F10 injection
  day after injecting cancer cells until which tumor size was not increased: 30 days
B16F10 melanoma cell [3]; treatment at the same time as B16F10 injection, versus mice injected with only B16F10 (all died around 30th day)
  survival of mice extended for: 20 days
[4]; B16F10-bearing mice, FIG. 4a
  number of cell in lymph node: temporarily been decreased
  time after injecting cancer cell at which number of cell in lymph node increased: around 16 days
[4]; after recovery of the cell number
  level of lymph node cell number comparing with mice treated with rat IgG or anti-4-1BB: less than ½ to ⅕
[4]; draining lymph node
  day after which number of CD4 and CD8 T cell was recovered to normal range: > 14 days
[4]; draining lymph node, FIG. 4b, 4c
  number of CD4 and CD8 T cell: decreased

## COc1cccc2c1C(=O)c1c(O)c3c(c(O)c1C2=O)C[C@@](O)(C(=O)CO)C[C@@H]3O[C@H]1C[C@H](N)[C@H](O)[C@H](C)O1 [Doxorubicin]
B16F10 melanoma cell [1]
  growth rate of cancer tissue: had been decreased
  anticancer effect / activity: strong anticancer effect in a dose dependent manner
  survival rate of mice: remarkably increased

## CCc1c2c(nc3ccc(OC(=O)N4CCC(N5CCCCC5)CC4)cc13)-c1cc3c(c(=O)n1C2)COC(=O)[C@]3(O)CC [Irinotecan, irinotecan]
B16F10 melanoma cell [1]; 2 mg irinotecan i.p. once
  time within which most of mice died: ≤ 30 days
B16F10 melanoma cell [1]
  anticancer effect / activity: strong anticancer effect in a dose dependent manner

## CC(=O)O[C@H]1C(=O)[C@@]2(C)[C@H]([C@H](OC(=O)c3ccccc3)[C@]3(O)C[C@H](OC(=O)[C@H](O)[C@@H](NC(=O)c4ccccc4)c4ccccc4)C(C)=C1C3(C)C)[C@]1(OC(C)=O)CO[C@@H]1C[C@@H]2O [Paclitaxel, paclitaxel]
B16F10 melanoma cell [1]
  growth rate of cancer tissue: slightly slowed
  anticancer effect / activity: a little lower inhibiting effect of the growth of B16-F10 melanoma comparing with other anticancer agents
  survival rate of mice: slightly increased

## N.N.[Cl][Pt][Cl] [cisplatin]
B16F10 melanoma cell [1]
  growth rate of cancer tissue: decreased in a dose dependent manner
  survival rate of mice: partly increased
